According to patent US12324927B2, “Methods and systems for photodynamic therapy calculations” (THE TRUSTEES OF THE UNIVERSITY OF PENNSYLVANIA, priority 2018, dated 2025):
“And” between values parts separate entries of the source, which are not always exact repeats. Equal entries are not always repeated.

Tested on: radiation-induced fibrosarcoma (RIF) tumors
Experiment: Preclinical Photofrin-PDT of RIF tumors: [ROS]rx by ROSED from Oxylite-measured or DCS blood-flow-derived oxygen
Assay type: in vivo, mice
Details: per mouse; for Initial Photofrin concentration, [PS]: in tumor, 5 mg/kg i.v. 24 h before light, 5 mg/kg; for Calculated [ROS]rx, Measured [^3O2] / Calculated [ROS]rx, DCS blood flow: 75 mW/cm^2, 1800 or 3333 s; for Calculated [ROS]rx, Measured [^3O2]: Oxylite-measured oxygen; for Calculated [ROS]rx, DCS blood flow: blood-flow-derived oxygen
Experimental: Tumor model and PDT treatment conditions: A preclinical study was conducted using a murine model to investigate the relationship between the dynamics of tumor oxygen and blood flow during PDT. Female C3H mice (Charles River Laboratories, Kingston, NY) between 6 to 8 weeks of age were used in this study. Radiation-induced fibrosarcoma (RIF) tumors were propagated on the shoulders of mice by intradermal injection of 3×10^5 cells. The mice were fed with chlorophyll-free (alfalfa-free) rodent diet (Harlan Laboratories Inc., Indianapolis, Indiana, US) for two weeks prior to treatment to eliminate the fluorescence signal from chlorophyll-breakdown products, which overlap with the emission spectrum of Photofrin fluorescence. PDT was performed when tumors reached ˜4-5 mm in diameter. The treatment area was depilated with Nair (Church & Dwight Co., Inc., Ewing, New Jersey, US) and 5 mg/kg Photofrin was injected via tail vein 24 hours prior to measurements and light delivery. Tissue optical properties and Photofrin fluorescence spectra were obtained using a custom-made multi-fiber contact probe, as described elsewhere (18, 19), before and after PDT. Tissue oxygenation and blood flow changes were monitored continuously during the delivery of PDT using oximeter and DCS as described below. At a 24-h drug-light interval, superficial irradiation of the tumor was performed with a 630-nm laser (Biolitec AG., A-1030, Vienna). A microlens fiber was coupled to the laser to irradiate the tumor uniformly. Animals used in this study were under the care of the University of Pennsylvania Laboratory Animal Resources and the studies were approved by the University of Pennsylvania Institutional Animal Care and Use Committee.
Measurement of tumor tissue oxygenation during preclinical PDT: Tumor oxygen was monitored throughout the PDT treatment in mice using an optical oxygen partial pressure (pO2) monitor (OxyLite Pro, Oxford Optronix, Oxford, UK), with a bare-fiber-type probe (NX-BF/O/E, Oxford Optronix, Oxford, UK). The tip of the probe was inserted into the tumor at approximately 1-2 mm depth from the treatment surface to measure the changes in tissue oxygen partial pressure within the tumor mass during PDT. ^3O2 concentration was then approximated by multiplying the measured pO2 with ^3O2 solubility in tissue, which is 1.295 μM/mmHg (20, 21).
Measurement of blood flow during preclinical PDT: Tumor blood flow was measured using DCS, an optical technique that measures the rapid speckle intensity fluctuations induced by blood flow. DCS, within a noncontact probe setup, was used to monitor blood flow changes in mice during PDT. A detailed description of the DCS instrument can be found in (22, 23). Briefly, a continuous wave 785-nm laser with long coherence length (CrystaLaser Inc., Reno, NV) delivered light through a source fiber, and the diffuse reflected light was collected using two single mode fibers located 0.3 cm laterally from the source fiber. These fibers were mounted on the imaging plane of a camera with sensor removed. A camera lens was used to focus the laser and to collect diffuse reflected light from the tumor at a fixed distance of 15 cm from the camera lens. This setup permits noncontact blood flow measurements during PDT without obstructing the treatment light. Two single photon counting avalanche photodiodes were used to detect the diffuse light in parallel. Notch filters at 630 nm and a 785 nm bandpass filter were used to prevent the ambient room light and the strong 630-nm treatment laser from saturating the detectors. Tissue blood flow measurements started 5 minutes before the beginning of PDT treatment and lasted until completion of PDT.
Calculation of [ROS]rx using ROSED: The PDT process is described by a set of kinetic equations which can be simplified to compute the production of [ROS]rx (4, 8, 9, 13). […]

Initial Photofrin concentration, [PS] (treatment time 1800 s): 6.9 µM and 6.8 µM and 5.2 µM and 5.7 µM | Initial Photofrin concentration, [PS] (treatment time 3333 s): 6.5 µM and 4.2 µM and 4.5 µM
Substance: Photofrin
Calculated [ROS]rx, Measured [^3O2] (treatment time 1800 s): 1.39 mM and 1.24 mM and 1.07 mM and 1.09 mM | Calculated [ROS]rx, Measured [^3O2] (treatment time 3333 s): 2.33 mM and 1.73 mM and 1.89 mM | Calculated [ROS]rx, DCS blood flow (treatment time 1800 s): 1.35 mM and 1.18 mM and 1.12 mM and 0.95 mM | Calculated [ROS]rx, DCS blood flow (treatment time 3333 s): 2.21 mM and 1.92 mM and 1.81 mM
